Experimental data reported in paper PMC4272579 (The Journal of steroid biochemistry and molecular biology, 2014).
Entries after “also recorded” stand apart in the source; their conditions may differ.

Legend:
[1] = molecular target: purified and modified human CYP17A1 (Homo sapiens, UniProt P05093); assay: Spectral assay for ligand binding; conditions: for type of difference spectrum induced: UV-visible difference spectroscopy; for Kd: read-out: Ks (spectral binding constant), 200 nM CYP17A1, 0.1 M potassium phosphate pH 7.4, 20% glycerol, room temperature, means ± SE of 2-4 experiments
[2] = molecular target: T1, native human CYP17A1 enzyme in yeast microsomes (Homo sapiens, UniProt P05093); assay: CYP17A1 hydroxylase activity assay; type: biochemical; conditions: for mode of inhibition: Lineweaver-Burk and Cornish-Bowden plots, progesterone hydroxylation
T1 sequence (P05093 1-508): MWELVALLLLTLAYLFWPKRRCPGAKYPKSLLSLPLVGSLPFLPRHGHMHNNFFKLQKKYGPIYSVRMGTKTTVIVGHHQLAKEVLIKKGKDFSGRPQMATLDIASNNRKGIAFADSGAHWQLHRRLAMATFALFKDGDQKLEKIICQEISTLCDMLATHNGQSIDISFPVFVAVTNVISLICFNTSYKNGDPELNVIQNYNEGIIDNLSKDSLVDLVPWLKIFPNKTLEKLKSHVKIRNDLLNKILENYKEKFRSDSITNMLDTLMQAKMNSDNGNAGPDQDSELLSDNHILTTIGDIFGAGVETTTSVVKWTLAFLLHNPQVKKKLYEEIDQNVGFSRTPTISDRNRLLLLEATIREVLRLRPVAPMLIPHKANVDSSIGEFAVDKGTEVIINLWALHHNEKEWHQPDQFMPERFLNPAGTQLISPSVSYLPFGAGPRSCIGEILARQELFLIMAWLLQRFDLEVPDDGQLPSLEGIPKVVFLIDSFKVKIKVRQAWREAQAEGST

[3] = system: CYP17A1; conditions: CYP17A1 inhibitor; statement in introduction, no reference given; cited from earlier work

SMILES	type of difference spectrum induced [1]	Ki [2] [nM]	mode of inhibition [2]	Kd [1] [nM]	Type of inhibition ([2]; progesterone as substrate)	mode of inhibition ([2]; listed as Abi)	potency relative to ketoconazole [3]
C[C@]12CC[C@@H](O)C[C@@H]1CC[C@@H]1[C@@H]2CC[C@]2(C)C(c3cccnc3)=CC[C@@H]12 [Compound 5, 17-(3-pyridyl)-5α-androsta-16-ene-3α-ol]	type II difference spectrum	14	mixed-type inhibitors; also recorded: mixed competitive-noncompetitive inhibition				
C[C@]12CCC(=O)C=C1CC[C@@H]1[C@@H]2CC[C@]2(C)C(c3cccnc3)=CC[C@@H]12 [Compound 11, 17-(3-pyridyl)androsta-4,16-dien-3-one]	type II difference spectrum	22	mixed-type inhibitors; also recorded: mixed competitive-noncompetitive inhibition				
C[C@]12CC[C@@H](O)C=C1CC[C@@H]1[C@@H]2CC[C@]2(C)C(c3cccnc3)=CC[C@@H]12 [Compound 13, 17-(3-pyridyl)androsta-4,16-dien-3α-ol]	type II difference spectrum	80	primarily non-competitive inhibition; also recorded: non-competitive inhibitor; also recorded: primarily noncompetitive; also recorded: largely noncompetitive mode of inhibition	1660 ± 286	N		
C[C@]12CC[C@H](O)CC1=CC[C@@H]1[C@@H]2CC[C@]2(C)C(c3cccnc3)=CC[C@@H]12 [Abiraterone, abiraterone, reference compound]	type II difference spectrum	27		2.6 ± 3.2		mixed-type inhibitors	about 20 times
C[C@]12CCC(=O)C[C@@H]1CC[C@@H]1[C@@H]2CC[C@]2(C)C(c3cccnc3)=CC[C@@H]12 [Compound 6, 17-(3-pyridyl)-5α-androsta-16-ene-3-one]	type II difference spectrum	7	mixed-type inhibitors; also recorded: mixed competitive-noncompetitive inhibition				
